In the assay the target is T1, RzmA-Cs (Mycetohabitans rhizoxinica, UniProt E5ATN9, R148A).
T1 construct: gene RBRH_01504; excised starter condensation (Cs) domain, residues 1-431, pET28a, E. coli BL21(DE3), N-terminal His6 tag removed by thrombin, size-exclusion purified
T1 sequence (E5ATN9 1-431 R148A): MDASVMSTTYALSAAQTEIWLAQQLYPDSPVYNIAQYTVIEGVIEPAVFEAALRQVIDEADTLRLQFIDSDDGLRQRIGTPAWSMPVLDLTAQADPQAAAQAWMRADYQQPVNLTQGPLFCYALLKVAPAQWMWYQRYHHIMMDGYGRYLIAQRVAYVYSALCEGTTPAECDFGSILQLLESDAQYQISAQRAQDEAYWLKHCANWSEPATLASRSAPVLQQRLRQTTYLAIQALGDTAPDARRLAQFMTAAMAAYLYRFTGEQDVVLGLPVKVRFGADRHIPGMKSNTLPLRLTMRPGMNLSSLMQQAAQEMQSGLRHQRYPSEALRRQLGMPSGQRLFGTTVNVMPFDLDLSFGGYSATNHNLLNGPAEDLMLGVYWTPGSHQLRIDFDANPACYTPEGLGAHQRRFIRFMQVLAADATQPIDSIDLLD
The assay can be described thus: isothermal titration calorimetry. It is filed as binding. A general note: ITC needs no label: the signal is the heat of the interaction.

`CCCCCCCC(=O)SCCNC(=O)CCNC(=O)[C@H](O)C(C)(C)COP(=O)(O)OP(=O)(O)OC[C@H]1O[C@@H](n2cnc3c(N)ncnc32)[C@H](O)[C@@H]1OP(=O)(O)O` [3d, C8-CoA] yielded a Kd of roughly 300 nM.

What is called Kd is the equilibrium constant for the complex coming apart. Read a low Kd as tighter binding.
